# Data reported in patent US11696917B2, “Agent enhancing antitumor effect using pyrazolo[3,4-d]pyrimidine compound” (TAIHO PHARMACEUTICAL CO., LTD., priority 2017, dated 2023).
# Like-named read-outs stand apart in the source and are kept apart here.
# Legend:
# [1] = test system: HER2-overexpressing human breast cancer cell line SK-BR-3 cells; test: Cytostatic activity against HER2-expressing cell line (SK-BR-3), CellTiter-Glo; type: cell-based; settings: 3-day culture, read-out: SK-BR-3 cell growth inhibitory activity IC50 value
# Protocol: (§1) Rate of growth inhibition (%)=(C−T)/(C)×100 T: Luminescence intensity of a well supplemented with the test compound C: Luminescence intensity of a well not supplemented with the test compound
# (§2) HER2-overexpressing human breast cancer cell line SK-BR-3 cells were suspended in McCoy's 5a medium (manufactured by Life Technologies Corp.) containing 10% fetal bovine serum. The cell suspension was inoculated to each well of a 384-well flat-bottom microplate and cultured at 37° C. for 1 day in an incubator containing 5% carbon dioxide. The synthesis example compound was dissolved in DMSO, and the test compound was diluted into 500 times as high concentration as the final concentration using DMSO. The solution of the test compound in DMSO was diluted with the medium used in the suspension of each cell line, and this solution was added at a final concentration of DMSO of 0.2% to each well of the cell culture plate, followed by further culture at 37° C. for 3 days in an incubator containing 5% carbon dioxide.
# [2] = test system: EGFR-overexpressing highly activated human epithelioid cancer cell line A431 cells; test: Cytostatic activity against EGFR-expressing cell line (A431), CellTiter-Glo; type: cell-based; settings: 3-day culture, read-out: A431 cell growth inhibitory activity IC50 value
# Excerpt: as §2, with “human stomach” for “human breast”, “line NCI-N87” for “line SK-BR-3”, “in RPMI1640” for “in McCoy's 5a”, “serum. Meanwhile, EGFR-overexpressing highly activated human epithelioid cancer cell line A431 cells were suspended in DMEM, high glucose medium (manufactured by Life Technologies Corp.) containing 10% fetal bovine serum. Subsequently, each” for “serum. The”, “into a concentration of” for “into”, “times” for “times as high concentration as”
# as §1
# [3] = test system: HER2-overexpressing human stomach cancer cell line NCI-N87 cells; test: Cytostatic activity against HER2-expressing cell line (NCI-N87), CellTiter-Glo; type: cell-based; settings: 3-day culture, read-out: NCI-N87 cell growth inhibitory activity IC50 value
# Excerpt: as §2, with “human stomach” for “human breast”, “line NCI-N87” for “line SK-BR-3”, “in RPMI1640” for “in McCoy's 5a”, “serum. Meanwhile, EGFR-overexpressing highly activated human epithelioid cancer cell line A431 cells were suspended in DMEM, high glucose medium (manufactured by Life Technologies Corp.) containing 10% fetal bovine serum. Subsequently, each” for “serum. The”, “into a concentration of” for “into”, “times” for “times as high concentration as”
# [4] = target: purified recombinant human HER2 protein (Homo sapiens (Human), UniProt P04626); test: Measurement of inhibitory effect on HER2-phosphorylating activity (in vitro); type: biochemical; settings: ATP 6 μM, 25° C., 40 minutes
# Chain of purified recombinant human HER2 protein (P04626 23-1255): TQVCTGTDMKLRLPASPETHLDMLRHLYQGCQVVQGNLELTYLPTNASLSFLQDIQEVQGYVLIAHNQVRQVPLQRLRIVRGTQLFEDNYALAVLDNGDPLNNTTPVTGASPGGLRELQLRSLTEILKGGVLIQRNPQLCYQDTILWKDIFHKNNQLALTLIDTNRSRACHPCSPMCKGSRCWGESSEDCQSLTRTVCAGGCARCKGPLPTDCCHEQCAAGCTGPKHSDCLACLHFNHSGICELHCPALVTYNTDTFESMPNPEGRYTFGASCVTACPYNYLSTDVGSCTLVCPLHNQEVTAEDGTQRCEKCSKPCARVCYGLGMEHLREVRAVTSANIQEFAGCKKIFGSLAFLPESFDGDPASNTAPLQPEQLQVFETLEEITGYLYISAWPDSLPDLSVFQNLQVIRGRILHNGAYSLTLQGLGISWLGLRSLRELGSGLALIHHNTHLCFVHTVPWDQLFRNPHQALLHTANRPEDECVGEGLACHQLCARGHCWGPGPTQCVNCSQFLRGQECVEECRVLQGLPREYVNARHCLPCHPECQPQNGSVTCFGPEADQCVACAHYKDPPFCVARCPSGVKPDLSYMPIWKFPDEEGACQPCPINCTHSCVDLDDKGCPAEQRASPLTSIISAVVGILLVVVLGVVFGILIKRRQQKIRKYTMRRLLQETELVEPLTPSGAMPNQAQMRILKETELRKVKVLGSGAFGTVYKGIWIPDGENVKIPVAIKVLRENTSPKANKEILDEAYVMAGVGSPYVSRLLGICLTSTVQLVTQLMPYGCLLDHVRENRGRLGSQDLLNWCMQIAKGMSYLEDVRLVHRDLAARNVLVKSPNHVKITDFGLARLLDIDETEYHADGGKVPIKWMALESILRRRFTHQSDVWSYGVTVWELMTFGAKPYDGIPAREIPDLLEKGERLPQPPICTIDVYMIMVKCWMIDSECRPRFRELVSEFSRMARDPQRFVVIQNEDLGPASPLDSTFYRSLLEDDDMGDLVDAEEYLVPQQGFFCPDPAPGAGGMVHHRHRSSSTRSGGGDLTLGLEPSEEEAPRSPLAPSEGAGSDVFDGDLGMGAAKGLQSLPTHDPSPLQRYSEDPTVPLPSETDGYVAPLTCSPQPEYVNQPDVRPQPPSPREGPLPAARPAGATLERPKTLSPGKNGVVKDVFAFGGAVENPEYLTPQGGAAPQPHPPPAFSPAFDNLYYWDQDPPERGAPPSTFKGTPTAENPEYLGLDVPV
# Excerpt: The purified recombinant human HER2 protein used in the test was purchased from Carna Biosciences, Inc.
# For the inhibitory activity measurement of each compound, the synthesis example compound was first serially diluted with dimethyl sulfoxide (DMSO).
SMILES,IC50 [1],IC50 [2],IC50 [3],IC50 [4],"IC50 ([2]; Homo sapiens, A-431, 72 h)","IC50 ([3]; Homo sapiens, NCI-N87, 72 h)","IC50 ([1]; Homo sapiens, SK-BR-3, 72 h)"
C=CC(=O)N1CCC[C@@H](n2nc(C(=O)Nc3ccc(OC(=O)N(C)C)c(C)c3C)c3c(N)ncnc32)C1 [compound 32],14 nM,1920 nM,7 nM,–,–,–,–
C=CC(=O)N1CCC[C@@H](n2nc(C(=O)Nc3cc(C)c(CC(=O)N(C)C)cc3Cl)c3c(N)ncnc32)C1 [compound 2],30 nM,2670 nM,45 nM,8.3 nM,–,–,–
C=CC(=O)N1CCC[C@@H](n2nc(C(=O)Nc3ccc(CC(=O)N(C)C)cc3Br)c3c(N)ncnc32)C1 [compound 17],13 nM,910 nM,5 nM,5.9 nM,–,–,–
C=CC(=O)N1CCC[C@@H](n2nc(C(=O)Nc3cc(F)c(CC(=O)N(C)C)cc3Cl)c3c(N)ncnc32)C1 [compound 18],–,1060 nM,12 nM,4.4 nM,–,–,–
C=CC(=O)N1CCC[C@@H](n2nc(C(=O)Nc3ccc(CC(=O)N(C)C)c(F)c3Cl)c3c(N)ncnc32)C1 [compound 50],–,277 nM,4 nM,2.9 nM,–,–,–
C=CC(=O)N1CCC[C@@H](n2nc(C(=O)Nc3cc(F)c(CC(=O)N(C)C)cc3C)c3c(N)ncnc32)C1 [compound 10],21 nM,1410 nM,6 nM,13 nM,–,–,–
C=CC(=O)N1CCC[C@@H](n2nc(C(=O)Nc3ccc(OC(=O)N(C)C)cc3C)c3c(N)ncnc32)C1 [compound 26],8 nM,984 nM,5 nM,7 nM,–,–,–
C=CC(=O)N1CC[C@@H](n2nc(C(=O)Nc3ccc(CC(=O)N(C)C)c4ccccc34)c3c(N)ncnc32)C1 [compound 61],–,1100 nM,–,13 nM,–,–,–
C=CC(=O)N1CCC[C@@H](n2nc(C(=O)Nc3ccc(OC(=O)N(C)C)c(F)c3F)c3c(N)ncnc32)C1 [compound 35],–,2610 nM,8 nM,16 nM,–,–,–
C=CC(=O)N1CCC[C@@H](n2nc(C(=O)Nc3ccc(OC(=O)N(C)C)c(Cl)c3)c3c(N)ncnc32)C1 [compound 29],44 nM,2220 nM,46 nM,6.5 nM,–,–,–
"C=CC(=O)N1CCC[C@@H](n2nc(C(=O)Nc3ccc(CC(=O)N4CCCC4)cc3C)c3c(N)ncnc32)C1 [compound 71, (R)-1-(1-acryloylpiperidin-3-yl)-4-amino-N-(2-methyl-4-(2-oxo-2-(pyrrolidin-1-yl)ethyl)phenyl)-1H-pyrazolo[3,4-d]pyrimidine-3-carboxamide]",–,–,–,–,2120 nM,26 nM,–
C=CC(=O)N1CCC[C@@H](n2nc(C(=O)Nc3ccc(OC(=O)N(C)C)cc3Cl)c3c(N)ncnc32)C1 [compound 27],9 nM,1510 nM,5 nM,–,–,–,–
"C=CC(=O)N1CCC[C@@H](n2nc(C(=O)Nc3ccc(NC(=O)N(C)C)cc3C)c3c(N)ncnc32)C1 [compound 74, (R)-1-(1-acryloylpiperidin-3-yl)-4-amino-N-(4-(3,3-dimethylureido)-2-methylphenyl)-1H-pyrazolo[3,4-d]pyrimidine-3-carboxamide]",–,–,–,–,8080 nM,18 nM,–
"C=CC(=O)N1CC(F)C[C@@H](n2nc(C(=O)Nc3ccc(CC(=O)N(C)C)cc3Cl)c3c(N)ncnc32)C1 (stereo partly drawn) [compound 76, 1-((3R)-1-acryloyl-5-fluoropiperidin-3-yl)-4-amino-N-(2-chloro-4-(2-(dimethylamino)-2-oxoethyl)phenyl)-1H-pyrazolo[3,4-d]pyrimidine-3-carboxamide]",–,–,–,–,2070 nM,–,8 nM
C=CC(=O)N1CC[C@@H](n2nc(C(=O)Nc3ccc(OC(=O)N(C)C)c4ccccc34)c3c(N)ncnc32)C1 [compound 58],–,681 nM,–,–,–,–,–
"C=CC(=O)N1CC(F)C[C@@H](n2nc(C(=O)Nc3ccc(CC(=O)N(C)C)c(C)c3C)c3c(N)ncnc32)C1 (stereo partly drawn) [compound 77, 1-((3R)-1-acryloyl-5-fluoropiperidin-3-yl)-4-amino-N-(4-(2-(dimethylamino)-2-oxoethyl)-2,3-dimethylphenyl)-1H-pyrazolo[3,4-d]pyrimidine-3-carboxamide]",–,–,–,–,2460 nM,–,12 nM
C=CC(=O)N1CCC[C@@H](n2nc(C(=O)Nc3ccc(CC(=O)N(C)C)c(Cl)c3OC)c3c(N)ncnc32)C1 [compound 11],12 nM,961 nM,4 nM,7.5 nM,–,–,–
C=CC(=O)N1CCC[C@@H](n2nc(C(=O)Nc3ccc(CC(=O)N(C)C)cc3C)c3c(N)ncnc32)C1 [compound 4],16 nM,2610 nM,12 nM,12 nM,–,–,–

SMILES,IC50 [1],IC50 [2],IC50 [3],IC50 [4],"IC50 ([2]; Homo sapiens, A-431, 72 h)","IC50 ([3]; Homo sapiens, NCI-N87, 72 h)","IC50 ([1]; Homo sapiens, SK-BR-3, 72 h)"
C=CC(=O)N1CCC[C@@H](n2nc(C(=O)Nc3ccc(CC(=O)N(C)C)c(Cl)c3)c3c(N)ncnc32)C1 [compound 8],–,955 nM,8 nM,9.2 nM,–,–,–
C=CC(=O)N1CCC[C@@H](n2nc(C(=O)Nc3cc(C)c(OC(=O)N(C)C)cc3C)c3c(N)ncnc32)C1 [compound 38],12 nM,1040 nM,8 nM,–,–,–,–
C=CC(=O)N1CCC[C@@H](n2nc(C(=O)Nc3ccc(CC(=O)N(C)C)cc3C=C)c3c(N)ncnc32)C1 [compound 48],–,314 nM,4 nM,8.5 nM,–,–,–
C=CC(=O)N1CCC[C@@H](n2nc(C(=O)Nc3ccc(OC(=O)N(C)C)c(F)c3)c3c(N)ncnc32)C1 [compound 34],–,2210 nM,32 nM,–,–,–,–
C=CC(=O)N1CC[C@@H](n2nc(C(=O)Nc3ccc(CC(=O)N(C)C)c(F)c3OC)c3c(N)ncnc32)C1 [compound 57],–,3390 nM,44 nM,31 nM,–,–,–
C=CC(=O)N1CC[C@@H](n2nc(C(=O)Nc3ccc(OC(=O)N(C)C)cc3C)c3c(N)ncnc32)C1 [compound 63],–,1670 nM,11 nM,–,–,–,–
C=CC(=O)N1CCC[C@@H](n2nc(C(=O)Nc3ccc(OC(=O)N(C)C)c4ccccc34)c3c(N)ncnc32)C1 [compound 33],–,263 nM,–,–,–,–,–
C=CC(=O)N1C[C@H](n2nc(C(=O)Nc3ccc(CC(=O)N(C)C)c(C)c3C)c3c(N)ncnc32)C[C@@H]1C [compound 79],–,6940 nM,–,17 nM,–,–,–
"C=CC(=O)N1CCC[C@@H](n2nc(C(=O)Nc3ccc(CC(=O)N(C)C)c(C)c3C)c3c(N)ncnc32)C1 [compound 13, (R)-1-(1-acryloylpiperidin-3-yl)-4-amino-N-(4-(2-(dimethylamino)-2-oxoethyl)-2,3-dimethylphenyl)-1H-pyrazolo[3,4-d]pyrimidine-3-carboxamide]",–,–,–,–,1210 nM,5 nM,9 nM
C=CC(=O)N1CCC[C@@H](n2nc(C(=O)Nc3ccc(OC(=O)N(C)C)c(C)c3)c3c(N)ncnc32)C1 [compound 30],39 nM,2350 nM,23 nM,–,–,–,–
C=CC(=O)N1CCC[C@@H](n2nc(C(=O)Nc3ccc(CC(=O)N(C)C)c4c3OCO4)c3c(N)ncnc32)C1 [compound 53],18 nM,–,–,14 nM,–,–,–
C=CC(=O)N1C[C@H](n2nc(C(=O)Nc3ccc(CC(=O)N(C)C)cc3Cl)c3c(N)ncnc32)C[C@@H]1C [compound 78],–,5450 nM,–,–,–,–,–
C=CC(=O)N1CC[C@@H](n2nc(C(=O)Nc3ccc(CC(=O)N(C)C)cc3C=C)c3c(N)ncnc32)C1 [compound 60],–,5260 nM,–,20 nM,–,–,–
C=CC(=O)N1CCC[C@@H](n2nc(C(=O)Nc3ccc(OC(=O)N(C)C)cc3OC)c3c(N)ncnc32)C1 [compound 36],12 nM,–,–,–,–,–,–
C=CC(=O)N1CCC[C@@H](n2nc(C(=O)Nc3cc(Cl)c(CC(=O)N(C)C)cc3OC)c3c(N)ncnc32)C1 [compound 9],–,2450 nM,13 nM,10 nM,–,–,–
C=CC(=O)N1CCC[C@@H](n2nc(C(=O)Nc3ccc(CC(=O)N(C)C)c4ccccc34)c3c(N)ncnc32)C1 [compound 5],11 nM,1230 nM,6 nM,–,–,–,–
C=CC(=O)N1CC[C@@H](n2nc(C(=O)Nc3ccc(CC(=O)N(C)C)c(F)c3C)c3c(N)ncnc32)C1 [compound 56],–,2610 nM,31 nM,22 nM,–,–,–
C=CC(=O)N1CCC[C@@H](n2nc(C(=O)Nc3ccc(CC(=O)N(C)C)c(F)c3C)c3c(N)ncnc32)C1 [compound 12],–,340 nM,3 nM,7.5 nM,–,–,–
